Results from patent US20110038885A1, “CHEMOKINE ANALOGS” (priority 2007, published 2011).
Bridge positions count the residues as written; N and C are the ends. Square brackets hold non-standard residues; d marks the D form. Peptide text beside a SMILES is read from it. * marks the point of attachment. Lauroyl = CCCCCCCCCCCC(=O)*; X1 = O=C(CN1CCN(CCO)CC1)*; Octanoyl = CCCCCCCC(=O)*

What was measured:
[1] = Half-life in rat in vivo; details: read-out: T ½ rat in vivo
[2] = test system: MCP-1; test: In vitro chemotaxis (trans-well migration) v MCP-1; type: cell-based, human
In short: (§1)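 Human THP-1 monocytes (10^4-10^6) with agent at varying concentrations in upper trans-well chamber; IL-8 or MCP-1 in lower chamber at a migration-inducing concentration, 37° C for e.g. 4 hours. Migrated cells quantified by MTT (595 nm) against a THP-1 standard curve; cytotoxicity and non-chemokine chemoattractant controls run.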

[3] = test system: IL-8; test: In vitro chemotaxis, inhibition v IL-8; type: cell-based, human; parameters: concentration or dose not given beside the values
In short: as §1

[4] = Half-life in rat plasma in vitro; type: in vitro ADME; details: for half-life: read-out: T ½ rat plasma in vitro (converted)

Compound | half-life [1] | EC50 [2] | half-life [4] | T ½ rat plasma in vitro [4] | v IL-8 inhibition (%) [3]
CC[C@H](C)[C@@H]1NC(=O)[C@H](Cc2c[nH]c3ccccc23)NC(=O)[C@@H](CCCCN)NC(=O)[C@H](CCC(N)=O)NC(=O)[C@H](CCCCN)NC(=O)[C@@H]2CCCN2C(=O)[C@H](CC(=O)O)NC(=O)[C@H](CC(C)C)NC(=O)[C@@H](NC(C)=O)CSSC[C@@H](C(N)=O)NC(=O)[C@H](CCC(N)=O)NC1=O [Example 27, Ac-c(Cys-Leu-Asp-Pro-Lys-Gln-D-Lys-Trp-Ile-Gln-Cys)-NH2] (Ac-CLDPKQ[dK]WIQC-NH2; disulfide 1-11) | 22.7 min | 7 nM |  |  | 91.0%
CC[C@H](C)[C@@H]1NC(=O)[C@H](Cc2c[nH]c3ccccc23)NC(=O)[C@H](CCCCN)NC(=O)[C@H](CCC(N)=O)NC(=O)[C@H](CCCCN)NC(=O)[C@H]2CCCN2C(=O)[C@H](CC(=O)O)NC(=O)[C@H](CC(C)C)NC(=O)[C@@H](NC(C)=O)CSSC[C@@H](C(N)=O)NC(=O)[C@H](CCC(N)=O)NC1=O [Example 30, Ac-c(Cys-Leu-Asp-D-Pro-Lys-Gln-Lys-Trp-Ile-Gln-Cys)-NH2] (Ac-CLD[dP]KQKWIQC-NH2; disulfide 1-11) | < 10 min | 8 nM |  |  | 99.2%
CC[C@@H](C)[C@H]1NC(=O)[C@@H](CCC(N)=O)NC(=O)[C@H](NC(=O)CN2CCN(CCO)CC2)CSSC[C@H](C(N)=O)NC(=O)[C@@H](CC(C)C)NC(=O)[C@@H](CC(=O)O)NC(=O)[C@H]2CCCN2C(=O)[C@@H](CCCCN)NC(=O)[C@@H](CCC(N)=O)NC(=O)[C@@H](CCCCN)NC(=O)[C@@H](Cc2c[nH]c3ccccc23)NC1=O [Example 152, HEPA-c(D-Cys-D-Gln-D-Ile-D-Trp-D-Lys-D-Gln-D-Lys-D-Pro-D-Asp-D-Leu-D-Cys)-NH2] (X1-[dC][dQ][dI][dW][dK][dQ][dK][dP][dD][dL][dC]-NH2; disulfide 1-11) | 38 min | 20 nM |  |  | 103.5%
CCCCCCCCCCCC(=O)NCCCC[C@H](NC(C)=O)C(=O)N[C@H]1CSSC[C@@H](C(N)=O)NC(=O)[C@H](CCC(N)=O)NC(=O)[C@H]([C@@H](C)CC)NC(=O)[C@H](Cc2c[nH]c3ccccc23)NC(=O)[C@H](CCCCN)NC(=O)[C@H](CCC(N)=O)NC(=O)[C@H](CCCCN)NC(=O)[C@@H]2CCCN2C(=O)[C@H](CC(=O)O)NC(=O)[C@H](CC(C)C)NC1=O [Example 162, Ac-Lys(N/-dodecanoyl)-c(Cys-Leu-Asp-Pro-Lys-Gln-Lys-Trp-Ile-Gln-Cys)-NH2] (Ac-K(Lauroyl)CLDPKQKWIQC-NH2; disulfide 2-12) | 17 min | 20 nM |  |  | 101.1%
CC(C)(C)OC(=O)N[C@@H](Cc1c[nH]c2ccccc12)C(=O)NCC(=O)NC1CCC(=O)NC1=O (stereo partly drawn) [Example 163, BOC-Trp-Gly-α-aminoglutaramide] |  | 20 nM | 366 min |  | 105.7%
CCCCCCCCCCCC(=O)NCCCC[C@H](N)C(=O)N[C@@H](CC(=O)O)C(=O)N[C@H]1CSSC[C@@H](C(N)=O)NC(=O)[C@H](CCC(N)=O)NC(=O)[C@H]([C@@H](C)CC)NC(=O)[C@H](Cc2c[nH]c3ccccc23)NC(=O)[C@H](CCCCN)NC(=O)[C@H](CCC(N)=O)NC(=O)[C@H](CCCCN)NC(=O)[C@@H]2CCCN2C(=O)[C@H](CC(=O)O)NC(=O)[C@H](CC(C)C)NC1=O [Example 170, Lys(Nε-dodecanoyl)-Asp-c(Cys-Leu-Asp-Pro-Lys-Gln-Lys-Trp-Ile-Gln-Cys)-NH2] (H-K(Lauroyl)DCLDPKQKWIQC-NH2; disulfide 3-13) | 5 min | > 1000 nM |  |  | −5.1%
CC(C)OC(=O)N[C@@H](Cc1c[nH]c2ccccc12)C(=O)NCCC(=O)NC1CCC(=O)NC1=O (stereo partly drawn) [Example 179, N-(isopropoxycarbonyl)-Trp-βAla-α-aminoglutarimide] |  |  | 546 min |  | 
N[C@@H](Cc1c[nH]c2ccccc12)C(=O)NCCC(=O)NC1CCC(=O)NC1=O (stereo partly drawn) [Example 182, Trp-βAla-α-aminoglutaramide] |  | 6 nM | 54 min |  | 
CC[C@@H](C)[C@H]1NC(=O)[C@@H](CCC(N)=O)NC(=O)[C@H](N)CSSC[C@H](C(N)=O)NC(=O)[C@@H](CCCCN)NC(=O)[C@@H](Cc2c[nH]c3ccccc23)NC1=O [Example 183, c(D-Cys-D-Gln-D-Ile-D-Trp-D-Lys-D-Cys)-NH2] (H-[dC][dQ][dI][dW][dK][dC]-NH2; disulfide 1-6) |  | 20 nM | > 1440 min |  | 
CC(C)[C@@H](CC(=O)NC1CCC(=O)NC1=O)NC(=O)[C@H](Cc1c[nH]c2ccccc12)NC(=O)OC(C)(C)C (stereo partly drawn) [Example 184, BOC-Trp-βhVal-α-aminoglutarimide] |  | 10 nM | 78 min |  | 
BOC-Tcc-βAla-α-aminoglutaramide [Example 171] |  | 602 nM |  | 510 min | 84.6%

The remaining compounds from weak to strong by EC50 [2], led by results:

half-life [1] | EC50 [2] | half-life [4] | T ½ rat plasma in vitro [4] | Compound | v IL-8 inhibition (%) [3]
 | 66 nM | 186 min |  | CC(C)(NC(=O)[C@@H](N)Cc1c[nH]c2ccccc12)C(=O)NC1CCC(=O)NC1=O (stereo partly drawn) [Example 188, Trp-Aib-aminoglutarimide] | 
< 5 min | 8 nM |  |  | CC[C@H](C)[C@@H]1NC(=O)[C@H](Cc2c[nH]c3ccccc23)NC(=O)[C@H](CCCCN)NC(=O)[C@@H](NC(=O)[C@H](CCC(N)=O)NC(=O)[C@@H](N)CCCCN)CSSC[C@@H](C(N)=O)NC(=O)[C@H](CCC(N)=O)NC1=O [Example 48, Lys-Gln-c(Cys-Lys-Trp-Ile-Gln-Cys)-NH2] (H-KQCKWIQC-NH2; disulfide 3-8) | 91.9%
39 min | 6 nM |  |  | CCCCCCCC(=O)NCCCC[C@H](NC(=O)[C@H](CC(=O)O)NC(=O)[C@H]1CSSC[C@@H](N)C(=O)N[C@H](CCC(N)=O)C(=O)N[C@H]([C@H](C)CC)C(=O)N[C@H](Cc2c[nH]c3ccccc23)C(=O)N[C@H](CCCCN)C(=O)N[C@H](CCC(N)=O)C(=O)N[C@H](CCCCN)C(=O)N2CCC[C@@H]2C(=O)N[C@H](CC(=O)O)C(=O)N[C@H](CC(C)C)C(=O)N1)C(=O)O [Example 148, c(D-Cys-D-Gln-D-Ile-D-Trp-D-Lys-D-Gln-D-Lys-D-Pro-D-Asp-D-Leu-D-Cys)-Asp-Lys(Nε-octanoyl)-OH] (H-[dC][dQ][dI][dW][dK][dQ][dK][dP][dD][dL][dC]DK(Octanoyl)-OH; disulfide 1-11) | 100.9%
 | 5 nM | 240 min |  | CC(C)(C)OC(=O)N[C@@H](Cc1c[nH]c2ccccc12)C(=O)NCCC(=O)NC1CCC(=O)NC1=O (stereo partly drawn) [Example 165, BOC-Trp-βA1a-α-aminoglutaramide] | 111.5%
14 min | 4 nM |  |  | CC[C@H](C)[C@@H]1NC(=O)[C@H](Cc2c[nH]c3ccccc23)NC(=O)[C@H](CCCCN)NC(=O)[C@@H](CCC(N)=O)NC(=O)[C@H](CCCCN)NC(=O)[C@@H]2CCCN2C(=O)[C@H](CC(=O)O)NC(=O)[C@H](CC(C)C)NC(=O)[C@@H](NC(C)=O)CSSC[C@@H](C(N)=O)NC(=O)[C@H](CCC(N)=O)NC1=O [Example 28, Ac-c(Cys-Leu-Asp-Pro-Lys-D-Gln-Lys-Trp-Ile-Gln-Cys)-NH2] (Ac-CLDPK[dQ]KWIQC-NH2; disulfide 1-11) | 96.9%
